Data taken from patent US20180073031A1, “TRANSCRIPTIONAL SENSOR FOR BILE ACIDS IN BACTEROIDES THETAIOTAOMICRON” (priority 2016, published 2018).

How the values were obtained:
[1] = test system: bile acid sensor BreR from V. cholerae; assay type: cell-based; conditions: for sensor sensitive to substance (FIG. 4 legend): in vitro functionality; for induction of reporter luminescence by bile acid: strain grown with various concentrations of bile acids, FIGS. 4B-4G; for Sensitivity: BreR bile acid sensor in B. thetaiotaomicron; for Sensitivity / Basal Activity: ± SD; for Basal Activity / Dynamic Range: BreR bile acid sensor; for Basal Activity: basal reporter luminescence; for Dynamic Range: reporter induction
[2] = test system: VFA0359 from Vibrio fischeri; assay: Luciferase assay of bile acid sensor using VFA0359 in B. thetaiotaomicron; assay type: cell-based; conditions: same operator sequence as BreR

Row | Structure (SMILES) | sensor sensitive to substance (FIG. 4 legend) [1] | induction of reporter luminescence by bile acid [1] | Sensitivity [1] | Basal Activity [1] | Dynamic Range [1] | induced gene expression of the reporter construct [2] | relative sensitivity of the sensor among deconjugated bile acids [1]
1 | C[C@H](CCC(=O)NCCS(=O)(=O)O)[C@H]1CC[C@H]2[C@@H]3[C@H](O)C[C@@H]4C[C@H](O)CC[C@]4(C)[C@H]3C[C@H](O)[C@]12C [TCA, taurocholic acid] | not | does not sense |  |  |  |  | 
2 | C[C@H](CCC(=O)O)[C@H]1CC[C@H]2[C@@H]3CC[C@@H]4C[C@H](O)CC[C@]4(C)[C@H]3C[C@H](O)[C@]12C [DCA, deoxycholic acid] |  |  | 25.8 ± 7.6 Lum/μM*10^−5 | 1.7 ± 0.8 Lum × 10^4 | 71.5 ± 3.4 fold-change | ~600 fold | 
3 | C[C@H](CCC(=O)NCC(=O)O)[C@H]1CC[C@H]2[C@@H]3[C@H](O)C[C@@H]4C[C@H](O)CC[C@]4(C)[C@H]3C[C@H](O)[C@]12C [GCA, glycocholic acid] | not | does not sense |  |  |  |  | 
4 | C[C@H](CCC(=O)O)[C@H]1CC[C@H]2[C@@H]3CC[C@@H]4C[C@H](O)CC[C@]4(C)[C@H]3CC[C@]12C [LCA, lithocholic acid] |  |  | 1.4 ± 0.8 Lum/μM*10^−5 | 2.2 ± 0.9 Lum × 10^4 | 17.5 ± 4.9 fold-change |  | 
5 | C[C@H](CCC(=O)O)[C@H]1CC[C@H]2[C@@H]3[C@H](O)C[C@@H]4C[C@H](O)CC[C@]4(C)[C@H]3C[C@H](O)[C@]12C [CA, cholic acid] | sensitive | induced luminescence in a dose dependent manner | 0.8 ± 0.2 Lum/μM*10^−5 | 2.1 ± 0.7 Lum × 10^4 | 18.5 ± 3.8 fold-change |  | least sensitive
6 | CC(C)CCC[C@@H](C)[C@H]1CC[C@H]2[C@@H]3CC=C4C[C@@H](O)CC[C@]4(C)[C@H]3CC[C@]12C [cholesterol] | not |  |  |  |  |  | 
7 | C[C@H](CCC(=O)O)[C@H]1CC[C@H]2[C@@H]3[C@H](O)C[C@@H]4C[C@H](O)CC[C@]4(C)[C@H]3CC[C@]12C [CDCA, chenodeoxycholic acid] | sensitive | induced luminescence in a dose dependent manner | 2.3 ± 1.1 Lum/μM*10^−5 | 1.9 ± 0.4 Lum × 10^4 | 25.8 ± 11.1 fold-change |  | moderately sensitive
